Laboratory results reported in article PMC11361161 (BMC Chemistry, 2024).
Where two headings read alike, the source gives them in different places.

Target: human thymidylate synthase (hTS) (Homo sapiens, UniProt P04818)
Experiment: Thymidylate synthase inhibitory assay
Assay type: biochemical

human thymidylate synthase (hTS), sequence (P04818 whole entry): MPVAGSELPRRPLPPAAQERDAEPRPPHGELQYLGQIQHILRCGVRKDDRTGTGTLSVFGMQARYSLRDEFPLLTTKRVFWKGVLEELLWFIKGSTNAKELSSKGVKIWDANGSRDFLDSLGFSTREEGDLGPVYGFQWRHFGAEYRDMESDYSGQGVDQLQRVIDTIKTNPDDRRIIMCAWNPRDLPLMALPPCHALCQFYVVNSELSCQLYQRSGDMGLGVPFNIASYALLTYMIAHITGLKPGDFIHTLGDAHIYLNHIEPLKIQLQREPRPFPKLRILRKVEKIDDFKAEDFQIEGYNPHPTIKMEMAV

Row | Compound | IC50 (read-out: In vitro thymidylate synthase (TS) IC50, 30 °C, pH 7.4, 30 nM hTS, absorbance at 340 nm, mean ± SEM, triplicate) [nM] | IC50 [nM]
1 | 7-(4-methoxyphenyl)-1,3-dimethyl-5-(naphthalen-2-yl)pyrido[2,3-d]pyrimidine-2,4(1 H,3 H)-dione [Compound 2n] | 13.5 ± 0.96 | –
2 | COc1ccc(-c2cc(-c3ccc(N(C)C)cc3)c3c(=O)[nH]c(=O)[nH]c3n2)cc1 [Compound 1j, 5-(4-(dimethylamino)phenyl)-7-(4-methoxyphenyl)pyrido[2,3-d]pyrimidine-2,4(1 H,3 H)-dione] | – | 20.5 ± 1.09
3 | COc1ccc(-c2cc(-c3ccc4ccccc4c3)c3c(=O)[nH]c(=O)[nH]c3n2)cc1 [Compound 1n, 7-(4-methoxyphenyl)-5-(naphthalen-2-yl)pyrido[2,3-d]pyrimidine-2,4(1 H,3 H)-dione] | – | 20.5 ± 1.09
4 | COc1ccc(-c2cc(-c3ccc(N(C)C)cc3)c3c(=O)n(C)c(=O)n(C)c3n2)cc1 [Compound 2j, 5-(4-(dimethylamino)phenyl)-7-(4-methoxyphenyl)-1,3-dimethylpyrido[2,3-d]pyrimidine-2,4(1 H,3 H)-dione] | – | 13.5 ± 0.96
